Experimental data: article PMC8151276, “An Integrated Approach toward NanoBRET Tracers for Analysis of GPCR Ligand Engagement” (Molecules, 2021)

Target: T1, F2RL2 (Homo sapiens, UniProt O00254)
T1 construct: purchased Promega (in-house HiBiT-GPCR construct library, NanoBRET)
T1 sequence (O00254 22-374): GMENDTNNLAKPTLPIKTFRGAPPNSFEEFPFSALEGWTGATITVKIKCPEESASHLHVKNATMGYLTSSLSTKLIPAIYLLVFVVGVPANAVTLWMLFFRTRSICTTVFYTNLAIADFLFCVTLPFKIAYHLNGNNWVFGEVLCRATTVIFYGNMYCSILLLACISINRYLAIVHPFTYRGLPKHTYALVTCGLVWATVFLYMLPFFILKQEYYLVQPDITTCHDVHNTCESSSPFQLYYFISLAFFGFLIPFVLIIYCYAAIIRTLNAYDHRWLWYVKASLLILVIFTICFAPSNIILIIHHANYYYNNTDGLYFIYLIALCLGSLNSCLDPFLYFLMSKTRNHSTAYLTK
Test: NanoBRET screen HiBiT-F2RL2 in HEK293
Format: binding
Procedure: Each tracer candidate was screened across the entire library of HiBiT-GPCR constructs using NanoBRET as the detection modality. As depicted in Figure 4A, the specificity of interactions was evaluated through decrease in BRET due to competitive displacement of a bound tracer by excess parental compound. Each tracer was analyzed for binding to each HiBiT-GPCR fusion in the absence and in the presence of competing parental compound. Briefly, HEK293 cells were transfected with HiBiT-GPCR constructs diluted into promoterless DNA to reduce expression and maximize translocation to the cell surface. Each tracer candidate was then screened at concentrations of 1 μM and 0.1 μM across cells expressing these fusions. Cells were treated for 1.5 h with tracer either alone or in the presence of 20 μM competing parental compound (i.e., control). BRET was measured upon addition of purified LgBiT and subsequent complementation with HiBiT genetically fused to a GPCR. The specificity of interactions was assessed through a decrease in BRET signal due to competitive displacement of the bound tracer. To further gauge the robustness of these interactions, the fold response over the control (i.e., BRETtracer/BRETcontrol) was calculated. We chose a 1.5-fold response, which translates to ≥7-fold signal over noise as the minimal threshold required to score an interaction as positive. […]. Below we highlight the screening results obtained for our exemplary fluorescent tracers based on Clozapine, Amitriptyline and AZD1283.
HiBiT-GPCR DNA constructs were diluted in 10 mM Tris pH 8 to a final concentration of 0.01 μg/μL, arrayed in 96-well plates and stored at −20 °C. For transfection, HEK293 cells were suspended in Opti-MEM (without phenol red) supplemented with 2% fetal bovine serum (Seradigm) and 100 units/mL penicillin–streptomycin (Gibco) at a final concentration of 220,000 cells/mL and dispensed into white 96-well plates at 90 μL/well. Subsequent transfections and screens were carried using an Agilent Bravo Automated Liquid Handling Platform. First, the 96-well HiBiT DNA arrays were diluted 25-fold in Opti-MEM (without serum or phenol red) to a final concentration of 0.0004 μg/μL and 20 μL of the diluted DNAs were transferred into new 96-well plates. Next, promoterless carrier DNA (1 μg/μL) was diluted 25-fold (0.04 μg/μL) and then dispensed into the diluted arrays at 20 μL/well. Following brief mixing, Viafect transfection reagent (Promega) diluted 16-fold into Opti-MEM was dispensed into the plates at 40 μL/well. After mixing by pipetting, plates were incubated for 10 min on the pipetting station deck. The DNA-transfection reagent complexes were then added to plates containing cells. To facilitate the screen, 10 μL of DNA-transfection reagent complexes were added in duplicates to the top 4 and bottom 4 rows, resulting in two identical 48-well arrays per plate. Plates with transfected cells were incubated for 18–20 h at 37 °C/5% CO2. A screen of each tracer across the entire library using two different concentrations requires duplicate plates of transfected cells. Depending on the number of tracers being screened, transfections can be scaled up using the same ratios. The next day, for each tracer, four 20× screening solutions in tracer dilution buffer (Promega) were prepared: two duplicates at final concentration of 20 μM and two duplicates at a final concentration of 2 μM. A competing unmodified compound was added to one of each duplicate at a final concentration of 400 μM. The four resulting solutions were diluted 4-fold in Opti-MEM without serum or phenol red to generate 5× solutions (5 µM and 0.5 µM tracer +/− 100 μM competing compound). To screen the library, a BioTek MultiFlo FX liquid dispenser was used to dispense 22.5 µL of tracer solution to the top 4 rows and 22.5 µL tracer + competing compound solution to the 4 bottom rows. Plates were briefly mixed on an orbital shaker and incubated for 1.5 h at room temperature. […]

SMILES | NanoBRET Fold Response (F2RL2, tracer 0.1μM) | NanoBRET Fold Response (F2RL2, tracer 1μM) | also measured
CCOC(=O)c1cc(C#N)c(N2CCC(C(=O)NS(=O)(=O)Cc3ccccc3/C=C/C(=O)NCCNC(=O)CCc3ccc4n3[B-](F)(F)[N+]3=C(c5ccc[nH]5)C=CC3=C4)CC2)nc1C [AZD1283-1-NB590] | – | – | NanoBRET Fold Response (F2RL2, 0.1μM): 1.01; NanoBRET Fold Response (F2RL2, 1μM): 1.12
N#CN=C(NCCCOc1cccc(CN2CCCCC2)c1)NCCNC(=O)CCOCCOCCOCCOCCNC(=O)CCc1ccc2n1[B-](F)(F)[N+]1=C(c3ccc[nH]3)C=CC1=C2 [Aminopotentidine-2-NB590] | 0.95 | 1.02 | –
CN(C)CCC=C1c2ccccc2CCc2ccc(C(=O)NCCNC(=O)CCOCCOCCOCCOCCNC(=O)CCc3ccc4n3[B-](F)(F)[N+]3=C(c5ccc[nH]5)C=CC3=C4)cc21 [Amitriptyline-a-2-NB590] | – | – | NanoBRET Fold Response (tracer at 0.1μM): 1.03; NanoBRET Fold Response (tracer at 1μM): 0.99
CN(C)CCC=C1c2ccccc2CCc2ccc(C(=O)NCCNC(=O)CCOCCOCCOCCOCCNC(=O)CCc3ccc4n3[B-](F)(F)[N+]3=C(c5ccc[nH]5)C=CC3=C4)cc21 [Amitriptyline-b-2-NB590] | – | – | NanoBRET Fold Response (tracer at 0.1μM): 1.16; NanoBRET Fold Response (tracer at 1μM, listed as amitriptyline-b-2-NB590): 0.92
COc1ccc2c(n1)c(CCNC(C)=O)cn2CCNC(=O)CCc1ccc2n1[B-](F)(F)[N+]1=C(c3ccc[nH]3)C=CC1=C2 [Azamelatonin-1-NB590] | – | – | NanoBRET Fold Response (0.1μM tracer): 1.00; NanoBRET Fold Response (1μM tracer): 1.03
COc1ccc2[nH]c(-c3ccc(CNC(=O)CCOCCOCCOCCOCCNC(=O)CCc4ccc5n4[B-](F)(F)[N+]4=C(c6ccc[nH]6)C=CC4=C5)cc3)c(CCNC(C)=O)c2n1 [AzomelatoninICO9-2-NB590] | – | – | NanoBRET Fold Response (0.1μM tracer): 0.86; NanoBRET Fold Response (1μM tracer): 0.99
O=C(CCOCCOCCOCCOCCNC(=O)CCc1ccc2n1[B-](F)(F)[N+]1=C(c3ccc[nH]3)C=CC1=C2)NCCCN1CCN(C2=Nc3cc(Cl)ccc3Nc3ccccc32)CC1 [Clozapine-a-2-NB590] | – | – | NanoBRET Fold Response (F2RL2, 0.1μM tracer): 1.02; NanoBRET Fold Response (F2RL2, 1μM tracer): 1.20
CN1CCN(C2=Nc3cc(Cl)ccc3Nc3ccc(CNC(=O)CCOCCOCCOCCOCCNC(=O)CCc4ccc5n4[B-](F)(F)[N+]4=C(c6ccc[nH]6)C=CC4=C5)cc32)CC1 [Clozapine-b-2-NB590] | – | – | NanoBRET Fold Response (F2RL2, 0.1μM tracer): 1.01; NanoBRET Fold Response (F2RL2, 1μM tracer): 1.02
CN1CCN(C2=Nc3cc(Cl)ccc3N(CC(=O)NCCOCCOCCOCCOCCNC(=O)CCc3ccc4n3[B-](F)(F)[N+]3=C(c5ccc[nH]5)C=CC3=C4)c3ccccc32)CC1 [Clozapine-c-2-NB590] | – | – | NanoBRET Fold Response (F2RL2, 0.1μM tracer): 1.20; NanoBRET Fold Response (F2RL2, 1μM tracer): 0.97
O=C(CCOCCOCCOCCOCCNC(=O)CCc1ccc2n1[B-](F)(F)[N+]1=C(c3ccc[nH]3)C=CC1=C2)NCCCN1CCN(C2=Nc3ccccc3Oc3ccc(Cl)cc32)CC1 [Loxapine-a-2-NB590] | 1.03 | 1.12 | –
COc1ccccc1N1CCN(CCCCN2C(=O)c3ccc(CNC(=O)CCOCCOCCOCCOCCNC(=O)CCc4ccc5n4[B-](F)(F)[N+]4=C(c6ccc[nH]6)C=CC4=C5)cc3C2=O)CC1 [NAN-190-2-NB590] | 1.02 | 1.01 | –
COc1ccccc1N1CCN(CCCCN2C(=O)c3ccc(CNC(=O)CCOCCNC(=O)c4ccc(CNC(=O)CCc5ccc6n5[B-](F)(F)[N+]5=C(c7ccc[nH]7)C=CC5=C6)cc4)cc3C2=O)CC1 [NAN-190-3-NB590] | 1.10 | 0.95 | –
O=C(CCc1ccc2n1[B-](F)(F)[N+]1=C(c3ccc[nH]3)C=CC1=C2)NCc1ccc(C(=O)NCCOCCC(=O)N[C@@H]2CC[C@@]3(O)[C@H]4Cc5ccc(O)c6c5[C@@]3(CCN4CC3CC3)[C@H]2O6)cc1 [Naltrexone-3-NB590] | 1.07 | 1.02 | –
Cc1cc2c(s1)Nc1ccccc1N=C2N1CCN(CCCNC(=O)CCOCCOCCOCCOCCNC(=O)CCc2ccc3n2[B-](F)(F)[N+]2=C(c4ccc[nH]4)C=CC2=C3)CC1 [Olanzapine-a-2-NB590] | 0.97 | 1.01 | –
O=C(CCc1ccc2n1[B-](F)(F)[N+]1=C(c3ccc[nH]3)C=CC1=C2)NCc1ccc(C(=O)NCCOCCOCCNCC(O)COc2cccc3ccccc23)cc1 (stereo not shown) [Propranolol-3-NB590] | – | – | NanoBRET Fold Response (F2RL2, 0.1μM): 0.99; NanoBRET Fold Response (F2RL2, 1μM): 1.03
O=C(CCc1ccc2n1[B-](F)(F)[N+]1=C(c3ccc[nH]3)C=CC1=C2)NCCOCCOCCNC(=O)OCCOCCN1CCN(C2=Nc3ccccc3Sc3ccccc32)CC1 [Quetiapine-a-2-NB590] | 1.06 | 0.89 | –
Cc1nc2n(c(=O)c1CCN1CCC(c3noc4cc(F)ccc34)CC1)CCCC2OC(=O)NCCOCCOCCOCCOCCNC(=O)CCc1ccc2n1[B-](F)(F)[N+]1=C(c3ccc[nH]3)C=CC1=C2 (stereo not shown) [Risperidone-2-NB590] | 0.94 | 1.08 | –
CC(C)N(CC[C@H](c1ccccc1)c1cc(CCNC(=O)CCOCCOCCOCCOCCNC(=O)CCc2ccc3n2[B-](F)(F)[N+]2=C(c4ccc[nH]4)C=CC2=C3)ccc1O)C(C)C [Tolterodine-2-NB590] | 1.02 | 1.04 | –
CC(C)N(CC[C@H](c1ccccc1)c1cc(CCNC(=O)c2ccc(CNC(=O)CCc3ccc4n3[B-](F)(F)[N+]3=C(c5ccc[nH]5)C=CC3=C4)cc2)ccc1O)C(C)C [Tolterodine-BZ-NB590] | 1.01 | 1.04 | –
CCCn1c(=O)c2[nH]c(-c3ccc(OCC(=O)NCCNC(=O)CCOCCNC(=O)c4ccc(CNC(=O)CCc5ccc6n5[B-](F)(F)[N+]5=C(c7ccc[nH]7)C=CC5=C6)cc4)cc3)nc2n(CCC)c1=O [XAC-3-NB590] | 0.95 | 1.04 | –
